Laboratory results taken from ChEMBL document CHEMBL1201862, “PubChem BioAssay data set” (2004).
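In this assay, cells in 96-well plates receive the compound at five concentrations for 48 hours. Endpoints are linearly interpolated between the surrounding concentrations. GI50 marks 50% less growth.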 The source made the active and inactive calls. No stated cut-off is given here; in the data, active = GI50 up to about 1.1 µM and inactive = higher.

Experiments:
Test in all cases: NCI-60 cell line screen, 48 h
[1] = tested on: LOX IMVI
[2] = tested on: Malme-3M
[3] = tested on: OVCAR-8
[4] = tested on: SNB-19
[5] = tested on: SF-295
[6] = tested on: A549
[7] = tested on: HOP-62
[8] = tested on: DU-145
[9] = tested on: U-251
[10] = tested on: HL-60
[11] = tested on: ACHN
[12] = tested on: SK-MEL-28
[13] = tested on: UACC-62
[14] = tested on: NCI-H460
[15] = tested on: Hs-578T
[16] = tested on: SNB-75
[17] = tested on: OVCAR-4
[18] = tested on: SF-268
[19] = tested on: SK-MEL-5
[20] = tested on: UACC-257
[21] = tested on: MDA-N
[22] = tested on: MCF7
[23] = tested on: HCC 2998
[24] = tested on: RXF 393
[25] = tested on: SR
[26] = tested on: BT-549
[27] = tested on: HCT-116
[28] = tested on: A498
[29] = tested on: UO-31
[30] = tested on: COLO 205
[31] = tested on: NCI-H226
[32] = tested on: TK-10
[33] = tested on: MOLT-4
[34] = tested on: HCT-15
[35] = tested on: SN12C
[36] = tested on: SF-539
[37] = tested on: HOP-92
[38] = tested on: SK-OV-3
[39] = tested on: MDA-MB-435
[40] = tested on: CAKI-1
[41] = tested on: HT-29
[42] = tested on: SK-MEL-2
[43] = tested on: CCRF-CEM
[44] = tested on: OVCAR-5
[45] = tested on: PC-3
[46] = tested on: KM12
[47] = tested on: IGROV-1
[48] = tested on: OVCAR-3
[49] = tested on: 786-0
[50] = tested on: K562
[51] = tested on: EKVX
[52] = tested on: M14
[53] = tested on: NCI-H23
[54] = tested on: T47D
[55] = tested on: SW-620
[56] = tested on: MDA-MB-231
[57] = tested on: RPMI-8226
[58] = tested on: NCI-H522

`CN(C)c1ccc2c(SCC(=O)OCC(=O)[C@@]3(O)CC[C@H]4[C@@H]5CCC6=CC(=O)C=C[C@]6(C)[C@H]5C(=O)C[C@@]43C)c3ccc(N(C)C)cc3nc2c1` was tested, and the GI50 [1] was 26.7 µM (inactive), the GI50 [2] was > 100 µM (inactive) and the GI50 [3] was 8.11 µM (inactive). For the same molecule, the GI50 [4] was 23.7 µM (inactive), the GI50 [5] was 14 µM (inactive) and the GI50 [6] was 15.2 µM (inactive). The GI50 [7] was 57.9 µM (inactive), the GI50 [8] was 11.5 µM (inactive) and the GI50 [9] was 15 µM (inactive). The GI50 [10] was 1.24 µM (inactive), the GI50 [11] was 4.53 µM (inactive) and the GI50 [12] was 21.6 µM (inactive). The GI50 [13] was 10.8 µM (inactive), the GI50 [14] was 3.24 µM (inactive) and the GI50 [15] was > 100 µM (inactive). The GI50 [16] was 20.6 µM (inactive), the GI50 [17] was 10.9 µM (inactive) and the GI50 [18] was 5.82 µM (inactive). For the same molecule, the GI50 [19] was 15 µM (inactive), the GI50 [20] was 15.7 µM (inactive) and the GI50 [21] was 14.4 µM (inactive). The GI50 [22] was 7.03 µM (inactive), the GI50 [23] was 6 µM (inactive) and the GI50 [24] was 32.7 µM (inactive). The GI50 [25] was 1.35 µM (inactive), the GI50 [26] was 9.59 µM (inactive) and the GI50 [27] was 2.82 µM (inactive). For the same molecule, the GI50 [28] was > 54.3 µM (inactive), the GI50 [29] was 10.3 µM (inactive) and the GI50 [30] was 5.79 µM (inactive). For the same molecule, the GI50 [31] was 14.8 µM (inactive), the GI50 [32] was 16.3 µM (inactive) and the GI50 [33] was 2.65 µM (inactive). The GI50 [34] was 3.3 µM, the GI50 [35] was 7.01 µM (inactive) and the GI50 [36] was 6.19 µM (inactive). For the same molecule, the GI50 [37] was 30.7 µM (inactive), the GI50 [38] was 27.4 µM (inactive) and the GI50 [39] was 17 µM (inactive). For the same molecule, the GI50 [40] was 23.6 µM (inactive), the GI50 [41] was 2.02 µM (inactive) and the GI50 [42] was 24.5 µM (inactive). For the same molecule, the GI50 [43] was 1.35 µM (inactive), the GI50 [44] was 32.1 µM (inactive) and the GI50 [45] was 20.8 µM (inactive). The GI50 [46] was 6.5 µM (inactive), the GI50 [47] was 6.52 µM (inactive) and the GI50 [48] was 5.24 µM (inactive). The GI50 [49] was 4.16 µM (inactive), the GI50 [50] was 2.64 µM (inactive) and the GI50 [51] was 18.1 µM (inactive). For the same molecule, the GI50 [52] was 27.8 µM (inactive), the GI50 [53] was 16.7 µM (inactive) and the GI50 [54] was 17.4 µM (inactive). The GI50 [55] was 6.19 µM (inactive), the GI50 [56] was 27.5 µM (inactive) and the GI50 [57] was 14.6 µM (inactive). For the same molecule, the GI50 [58] was 21.8 µM (inactive).

In the case of `CC1C2CC(C(S(=O)(=O)O)C2=O)C1(C)C` (centres undefined), the GI50 [2] is reported as > 100 µM (inactive), the GI50 [3] is reported as > 100 µM (inactive) and the GI50 [4] is reported as > 100 µM (inactive). The GI50 [5] was > 100 µM (inactive), the GI50 [7] was > 100 µM (inactive) and the GI50 [8] was > 100 µM (inactive). The GI50 [9] was > 100 µM (inactive), the GI50 [10] was > 100 µM (inactive) and the GI50 [11] was > 100 µM (inactive). For the same molecule, the GI50 [12] was > 100 µM (inactive), the GI50 [13] was > 100 µM (inactive) and the GI50 [14] was > 100 µM (inactive). The GI50 [15] was > 100 µM (inactive), the GI50 [16] was > 100 µM (inactive) and the GI50 [17] was > 100 µM (inactive). The GI50 [18] was > 100 µM (inactive), the GI50 [20] was > 100 µM (inactive) and the GI50 [21] was > 100 µM (inactive). For the same molecule, the GI50 [22] was > 100 µM (inactive), the GI50 [23] was > 100 µM (inactive) and the GI50 [24] was > 100 µM (inactive). For the same molecule, the GI50 [25] was > 100 µM (inactive), the GI50 [26] was > 100 µM (inactive) and the GI50 [27] was > 100 µM (inactive). For the same molecule, the GI50 [28] was > 100 µM (inactive), the GI50 [29] was > 100 µM (inactive) and the GI50 [30] was > 100 µM (inactive). The GI50 [31] was > 100 µM (inactive), the GI50 [32] was > 100 µM (inactive) and the GI50 [33] was > 100 µM (inactive). The GI50 [35] was > 100 µM (inactive), the GI50 [36] was > 100 µM (inactive) and the GI50 [37] was > 100 µM (inactive). For the same molecule, the GI50 [38] was > 100 µM (inactive), the GI50 [39] was > 100 µM (inactive) and the GI50 [41] was > 100 µM (inactive). For the same molecule, the GI50 [43] was > 100 µM (inactive), the GI50 [44] was > 100 µM (inactive) and the GI50 [45] was > 100 µM (inactive). For the same molecule, the GI50 [46] was > 100 µM (inactive), the GI50 [47] was > 100 µM (inactive) and the GI50 [48] was > 100 µM (inactive). For the same molecule, the GI50 [49] was > 100 µM (inactive), the GI50 [50] was > 100 µM (inactive) and the GI50 [51] was > 100 µM (inactive). The GI50 [52] was > 100 µM (inactive), the GI50 [53] was > 100 µM (inactive) and the GI50 [54] was > 100 µM (inactive). For the same molecule, the GI50 [55] was > 100 µM (inactive), the GI50 [56] was > 100 µM (inactive) and the GI50 [58] was > 100 µM (inactive).
